Experimental data from patent US20170198011A1, “COMPOSITION FOR TREATING SEPSIS OR SEPTIC SHOCK COMPRISING THE PEPTIDE ORIGINATED FROM THE SMAD6” (Medpacto, Inc., priority 2011, published 2017).
Where no end group is shown, it is not given here. The star is where a group is joined. Palmitoyl = CCCCCCCCCCCCCCCC(=O)*

Tests used:
GRK2 = experiment: LPS-induced GRK2 expression in RAW264.7 macrophages (immunoblot); type: cell-based, mouse; details: RAW264.7 cells, 100 nM for 2 hrs, then LPS 2 hrs
Protocol: To examine how Smaducin-6 interrupts with the LPS-induced downregulation of CXCR2, the levels of G-protein-coupled receptor kinase 2 (GRK2) in human neutrophils and RAW264.7 macrophages were measured. GRK2 is upregualted by LPS, which is known to suppress the expression of CXCR2.

IFN-β1 = IFN-β1 in peritoneal fluid (ELISA) and splenocytes (FACS) of CLP mice; type: in vivo; details: injected 2 and 14 hrs after CLP
From the text: FIG. 8C is a graph showing levels of the IFN-β1cytokine in peritoneal fluid from mice subcutaneously injected with Smaducin-6 or scrambled peptides at 2 and 14 hrs after sepsis induction by CLP, as analyzed by ELISA, the peritoneal fluid being taken 24 hrs after CLP induction,
FIG. 8D is a graph showing expression levels of IFN-β1 in splenocytes of mice subcutaneously injected with Smaducin-6 or scrambled peptides at 2 and 14 hrs after sepsis induction by CLP, as measured by FACS, the splenocytes being taken 24 hrs after sepsis induction,
To analysis the mechanism of the anti-apoptotic activity of Smaducin-6, an examination was made of the IFN-β1-induced TRAIL expression. In this regard, 2 and 14 hrs after CLP, the scrambled peptides or the Smaducin-6 peptide was injected to the mice, and the expression of IFN-β1 in the peritoneal fluid from the mice was analyzed using ELISA in the same manner as in Example 6. In splenocytes from each mouse group, the expression level of IFN-β1 was determined using flow cytometry (FACS). For flow cytometry, IFN-β1 was detected by FITC-conjugated anti-mouse IFN-β antibody (22400-3, interferon source), and stained before data analysis using CellQuest Pro software (BD Bioscience).

[1] = system: bacteria in peritoneal fluid; experiment: Bacterial count in peritoneal fluid of CLP mice; type: in vivo; details: subcutaneous injection, versus scrambled peptides
From the text: FIG. 7A is a graph showing cell counts in the peritoneal fluid taken from sepsis mice treated with scrambled peptides or Smaducin-6,
(§1) In mice with CLP-induced sepsis, the bacterial clearance of Smaducin-6 was examined. Smaducin-6 or the scrambled peptides were subcutaneously injected into CLP mice from which peritoneal fluid was then extracted from the mice, and bacteria in the fluid was counted. […] An examination was made to see whether this bacterial clearance of Smaducin-6 was attributed to the intraperitoneal migration of neutrophils. To this end, 2 and 14 hrs after induction of septic shock by injecting 60 mg/kg of LPS, Smaducin-6 or the scrambled peptides were injected into septic shock mice, and 24 hrs after the induction of septic shock, neutrophils were isolated from the peritoneal cavity using Histopaque-1077 (Sigma). Mouse neutrophils were counted using Trypan Blue (Sigma).

[2] = system: TUNEL-positive cells in the spleen; experiment: TUNEL assay of spleen of mice with CLP-induced sepsis; type: in vivo; details: injected 2 and 14 hrs after CLP, spleen at 24 hrs
Protocol: An examination was made to see whether Smaducin-6 suppresses apoptosis in mice with CLP-induced sepsis. The scrambled peptides or the Smaducin-6 peptide was injected into mice suffering from CLP-induced sepsis from which the spleen was then excised. Smaducin-6 was assayed for anti-apototic activity using the TUNEL method. The expression level of caspase-3, involved in apoptosis, was also determined using an immunohistochemical assay.

neutrophils = experiment: Peritoneal neutrophil migration in LPS septic shock mice; type: in vivo, BALB/c mice; details: LPS 60 mg/kg, injected 2 and 14 hrs after, neutrophils isolated at 24 hrs
From the text: FIG. 7B is a graph showing neutrophil counts in the peritoneal fluid taken from BALB/c mice with LPS-induced septic shock at 24 hrs after LPS injection,
as §1

IL6 inflammatory gene = experiment: LPS-induced IL-6 expression in RAW264.7 cells by quantitative real-time RT-PCR; type: cell-based; details: RAW264.7 mouse macrophages, pre-treatment, then LPS
Protocol: FIG. 4A is a graph showing IL-6 levels in RAW264.7 cells as measured by quantitative real-time RT-PCR after treatment with scrambled peptides (Pal-Scram; 100 nM) or Smaducin-6 and then with LPS,

[3] = system: BALB/c mice with LPS-induced septic shock; experiment: Survival of mice with LPS-induced septic shock; type: in vivo; details: LPS 60 mg/kg intraperitoneal, 16 mg/kg injected four times every 12 hrs from 2 hrs after LPS
Protocol: FIG. 5D is a graph showing survival rates of BALB/c mice treated with 16 mg/kg Smaducin-6 or scrambled peptides after septic shock is induced by LPS;
Moreover, therapeutic effects of Smaducin-6 were examined in animal models of septic shock as well as CLP-induced sepsis. In this regard, LPS was intraperitoneally injected at a dose of 60 mg/kg into BALB/c mice, and from two hrs after LPS injection, Smaducin-6 was injected four times at regular intervals of 12 hrs into the mice.

TRAIL = TRAIL expression in splenocytes of CLP mice (flow cytometry, immunohistochemistry); type: in vivo; details: sepsis mice, flow cytometry and immunohistochemistry
From the text: FIG. 8E is a graph showing expression levels of TRAIL in splenocytes of mice subcutaneously injected with Smaducin-6 or scrambled peptides at 2 and 14 hrs after sepsis induction by CLP, as measured by FACS, the splenocytes being taken 24 hrs after sepsis induction, and
Also, the effect of Smaducin-6 on the expression of TRAIL in mice with CLP-induced sepsis was examined. Splenocytes from the mice were subjected to flow cytometry and immunohistochemistry for TRAIL in the same manner as in Examples 8B and 8D. In this context, rabbit antibody TRAIL (C92B9, cell signaling), and FITC-conjugated goat antibody to […] (NOVUS) were used as a primary and a secondary antibody, respectively.

## Smaducin-6: palmitic acid conjugated to N-terminus of the 20-amino-acid peptide of Smad6 position 422 to 441, GGRALVVRKVPPGYSIKVFD (SEQ ID NO: 1) (Palmitoyl-GGRALVVRKVPPGYSIKVFD)
GRK2
  LPS-induced GRK2 expression: downregualed
IFN-β1; ELISA (FIG. 8C)
  production of IFN-β1 in peritoneal fluid: inhibited
IFN-β1; FACS (FIG. 8D)
  expression level of IFN-β1 in splenocytes: inhibited
[1]
  number of bacteria in the peritoneal fluid: significantly lower
[2]
  level of TUNEL-positive cells in the spleen: significantly reduced
neutrophils
  migration of neutrophils to the peritoneal cavity: increased
IL6 inflammatory gene
  expression of LPS-induced IL6 inflammatory gene: reduced the expression of LPS-induced IL6 inflammatory gene in a dose-dependent manner
[3]
  survival in LPS-induced septic shock: therapeutic
TRAIL
  TRAIL expression in splenocytes: reduced
